Reference: US20240025856A1, “1,2,3,4-TETRAHYDROQUINOLINE DERIVATIVES AS INHIBITORS OF THE YAP/TAZ-TEAD ACTIVATION FOR TREATING CANCER” (KATHOLIEKE UNIVERSITEIT LEUVEN, priority 2020, published 2024)

What was measured:
KMRC3 = test: Cancer cell line proliferation assay (CellTiter-Glo), KMRC3; format: cell-based; details: 144 h, Kidney, LATS1 HOM DEL, 6 days
Description: (§1) All the cell lines are cultured in the media supplemented with 10-20% fetal bovine serum, in the temperature of 37° C., 5% CO2 and 95% humidity. The indicated cell lines (all sourced from the ATCC cell culture collection) are plated in 96-Well Flat Clear Bottom Black Polystyrene TC-Treated Microplates with the final cell density of 4×10^3 cells/well. Cells are incubated overnight and then compounds, dissolved in DMSO, are added in dose-response. Cells are incubated with compound dilutions for another 6 days. Cell viability is quantitated using CellTiter-Glo reagent (Perkin Elmer) and measured using an EnVision Multi Label Reader.

C-33 A = test: Cancer cell line proliferation assay (CellTiter-Glo), C-33 A; format: cell-based; details: Homo sapiens, 144 h, Cervical (squamous), L914Wfs*10 LATS2, 6 days
Description: as §1

NCI-H226 = test: Cancer cell line proliferation assay (CellTiter-Glo), NCI-H226; format: cell-based; details: Homo sapiens, 144 h, Lung (mesothelioma), NF2 HOM DEL/LATS1 HOM DEL, 6 days
Description: as §1

NCI-H226 tumor cells = test: In vivo efficacy in a subcutaneous human lung cancer xenograft model (NCI-H226 mesothelioma); design: species or system Female BALB/c Nude Mice; details: 100 mg/kg, p.o., BID × 21 days
Description: The NCI-H226 tumor cells were maintained in vitro with RPMI-1640 medium supplemented with 10% fetal bovine serum at 37° C. in an atmosphere of 5% CO2 in air. The cells in exponential growth phase were harvested and the cell numbers were quantitated by hemocytometer and cell viability was quantified by Trypan Blue counting before tumor inoculation. Balb/c nude mouse were inoculated with subcutaneously in the right front flank regions with 1×10^7 of NCI-H226 tumor cells in 0.1 mL of PBS mixed with 0.1 ml of Matrigel (1:1) for tumor development. All animals were randomized based on the tumor sizes as well as body weights and randomly allocated to the different study groups (8 mice per group). The randomization started when the mean tumor size at the right rear flank region had reached approximately 172 mm^3. The date of randomization was denoted as Day 0.
Cpd. No. 084 was formulated in Vehicle 1 (PEG400 (40%)+PG (30%)+WFI (30%)) as a 10 mg/ml solution, and dosed orally, twice daily, using 10 μl/g (final dose is 100 mg/kg) for 21 days. Cpd. No. 001 was formulated in Vehicle 2 (PEG400 (65%)+PG (20%)+WFI (15%)) as a 10 mg/ml solution, and dosed orally, twice daily, using 10 μl/g (final dose is 100 mg/kg) for 21 days. After tumor cell inoculation, the animals were checked daily for morbidity and mortality. At the time of routine monitoring, the animals were checked for any effects of tumor growth and treatments on behavior such as mobility, food and water consumption, body weight gain/loss (body weight was measured at least two times per week), and any other abnormalities. Mortality and observed clinical signs were recorded for individual animals. Tumor volumes were measured at least two times weekly in two dimensions using a caliper, and the volume was expressed in mm^3 using the formula: V=(L×W×W)/2, where V is tumor volume, L is tumor length (the longest tumor dimension) and W is tumor width (the longest tumor dimension perpendicular to L).
Tumor growth inhibition (TGI) was used as an indicator of antitumor activities, and was calculated from the relative tumor volumes of the control and treatment groups due to the variance of tumor volumes among groups at Day 0. TGI (%)=(1-T/C)×100%; T/C=MTVt/MTVc, MTVt: mean tumor volume in the treatment groups at a specific measurement day, MTVc: mean tumor volume in the control group at a specific measurement day. Moreover, the difference of TGIs between control and treatment groups was analyzed at a measurement day when all or most of the mice in the control groups were alive. In addition, body weight changes over time in each group were used as an index to evaluate the tolerability of test drugs, and were calculated from the average percentage of body weight changes of each individual mouse relative to their initial body weight at randomization using the following formula: group BW %=mean of ((BWt−BW0)/BW0×100%), BWt: body weight at Day t, BW0: body weight at Day 0.
To compare relative tumor volumes of different groups at a pre-specified day, we first used Bartlett's test to check the assumption of homogeneity of variance across all groups. When the p-value of Bartlett's test is >0.05, we run one-way ANOVA to test overall equality of means across all groups. If the p-value of the one-way ANOVA is <0.05, we further perform post hoc testing by running Tukey's HSD (honest significant difference) tests for all pairwise comparisons, and Dunnett's tests for comparing each treatment group with the vehicle group. When the p-value of Bartlett's test is <0.05, we run Kruskal-Wallis test to test overall equality of medians among all groups. If the p-value of the Kruskal-Wallis test is <0.05, we further perform post hoc testing by running Conover's non-parametric test for all pairwise comparisons or for comparing each treatment group with the vehicle group, both with single-step p-value adjustment. All tests were two-sided unless otherwise specified, and p-values<0.05 were regarded as statistically significant. […]

RL95-2 = test: Cancer cell line proliferation assay (CellTiter-Glo), RL95-2; format: cell-based; details: Homo sapiens, 144 h, Endometrial (adeno-squamous), LATS1 HOM DEL, 6 days
Description: as §1

NCI-1H226 = test: Mesothelioma cell line proliferation assay, H226 (ATPlite); format: cell-based; details: Homo sapiens, NCI-H226, 144 h, 6 days with compound
In short: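 H226 and H2052 mesothelioma cells, 1500 per well in RPMI with 10% FBS, attached overnight and then exposed to DMSO-dissolved compounds in dose-response for 6 days at 37 °C. Viability measured by ATPlite luminescence, converted to percent inhibition for EC50.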

[1] = test system: selected tumor cell lines; test: Cancer cell line proliferation assays, whole panel of selected tumor cell lines; format: cell-based; details: cancer cell lines of Table 5
Description: as §1

Caov-3 = test: Cancer cell line proliferation assay (CellTiter-Glo), Caov-3; format: cell-based; details: Homo sapiens, 144 h, Ovary, LATS2 HOM DEL, 6 days
Description: as §1

[2] = day 20, against the compound's own vehicle group

`C=CC(=O)NC1Cc2ccccc2N(c2ccc(C(F)(F)F)cc2)C1` (centres unmarked) [compound 001, N-(1-(4-(trifluoromethyl)phenyl)-1,2,3,4-tetrahydroquinolin-3-yl)acrylamide] was tested, and the GI50 (KMRC3) was 20 nM, the GI50 (C-33 A) was 100 nM and the GI50 (NCI-H226) was 40 nM. The “anti-tumor activity in the xenograft mesothelioma model” value (NCI-H226 tumor cells) was “highly statistically significant and strong anti-tumor activity”, the “Mean Tumor Volume (mm^3) on day 20” value (NCI-H226 tumor cells; day 20, 8 mice per group) was 217.26 ± 45.21 (8) mm^3 and the “T/C (%)” value (NCI-H226 tumor cells; [2]) was 49.62%. For the same molecule, the “TGI (%)” value (NCI-H226 tumor cells; [2]) was 50.38%, the GI50 (RL95-2) was 50 nM and the EC50 (NCI-1H226) was less than 1000 nM. For the same molecule, the “inhibitory activity on the cell proliferation of the selected tumor cell lines” value [1] was “strong inhibitory activity” and the GI50 (Caov-3) was 110 nM.
